Data: ChEMBL document CHEMBL1201862, “PubChem BioAssay data set” (2004)
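In this assay, cells in 96-well plates receive the compound at five concentrations for 48 hours. Endpoints are linearly interpolated between the surrounding concentrations. GI50: concentration for 50% inhibition of growth.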 Activity calls are given as the source filed them. Rule as the data show it: active = GI50 up to about 1.1 µM and inactive = higher.

Experiments:
Test in all cases: NCI-60 cell line screen, 48 h
[1] = system: SF-295
[2] = system: OVCAR-5
[3] = system: UACC-257
[4] = system: DU-145
[5] = system: SF-268
[6] = system: OVCAR-4
[7] = system: K562
[8] = system: SK-MEL-5
[9] = system: EKVX
[10] = system: CCRF-CEM
[11] = system: NCI-H460
[12] = system: TK-10
[13] = system: MOLT-4
[14] = system: 786-0
[15] = system: HCT-15
[16] = system: LOX IMVI
[17] = system: UACC-62
[18] = system: T47D
[19] = system: HCC 2998
[20] = system: DLD-1

Row | Compound | GI50 [1] | GI50 [2] | GI50 [3] | GI50 [4] | GI50 [5] | GI50 [6] | GI50 [7] | GI50 [8] | GI50 [9] | GI50 [10] | GI50 [11] | GI50 [12] | GI50 [13] | GI50 [14] | GI50 [15] | GI50 [16] | GI50 [17] | GI50 [18] | GI50 [19] | GI50 [20]
1 | COC(=O)c1ccc(CCc2cc(O)c(Br)cc2O)cc1 | 14.1 µM (inactive) | 18.5 µM (inactive) | 15.5 µM (inactive) | 14.4 µM (inactive) | 13.5 µM (inactive) | 11.2 µM (inactive) | 1.74 µM (inactive) | 11.5 µM (inactive) | 16.9 µM (inactive) | 1.98 µM (inactive) | 16.8 µM (inactive) | 14.5 µM (inactive) | 2.42 µM (inactive) | 14.4 µM (inactive) | 13.4 µM | 13.7 µM (inactive) | 14.1 µM (inactive) | 18.6 µM (inactive) | 17.7 µM (inactive) | 
2 | C=CCC(C(=O)OC)C1(C(=O)OC)c2[nH]c3ccccc3c2CCN1Cc1ccccc1 (stereo unspecified) | 35.1 µM (inactive) | > 100 µM (inactive) |  |  | > 100 µM (inactive) | 20.2 µM (inactive) | > 10 µM (inactive) | 85.5 µM (inactive) | > 100 µM (inactive) | 29.8 µM (inactive) |  | > 100 µM (inactive) | > 100 µM (inactive) | 19 µM (inactive) | > 100 µM |  | 74.6 µM (inactive) |  | > 100 µM (inactive) | > 100 µM (inactive)
3 | COc1ccc(-c2ccc(C(=O)C=P(c3ccccc3)(c3ccccc3)c3ccccc3)cc2)cc1 | 10.4 µM (inactive) | 16.6 µM (inactive) | 17.7 µM (inactive) | 14.5 µM (inactive) | 24.3 µM (inactive) | 7.96 µM (inactive) | 5 µM (inactive) | 9.64 µM (inactive) | 6.59 µM (inactive) | 5.52 µM (inactive) | 8.13 µM (inactive) | 10.8 µM (inactive) | 4.59 µM (inactive) | 16.7 µM (inactive) | 8.59 µM | 13.2 µM (inactive) | 15.2 µM (inactive) | 5.68 µM (inactive) | 1.79 µM (inactive) | 
4 | CCn1c(SCC(=O)NNC(=S)Nc2ccc(C)cc2)nc2ccccc2c1=O | > 100 µM (inactive) | > 100 µM (inactive) | > 100 µM (inactive) | > 100 µM (inactive) | 57.3 µM (inactive) | 78.9 µM (inactive) | 51.9 µM (inactive) | > 100 µM (inactive) | > 100 µM (inactive) | > 100 µM (inactive) | 1.6 µM (inactive) | 85.5 µM (inactive) | 27.1 µM (inactive) | > 100 µM (inactive) | > 100 µM | > 100 µM (inactive) | > 100 µM (inactive) | 65.5 µM (inactive) | > 100 µM (inactive) | 
5 | O=C(Nc1ccc(Cl)cc1)c1cc(S(=O)(=O)N2CCNNC2=O)c(S)cc1Cl | > 100 µM (inactive) | > 100 µM (inactive) | > 100 µM (inactive) | > 100 µM (inactive) | > 100 µM (inactive) | > 100 µM (inactive) | > 100 µM (inactive) | > 100 µM (inactive) | > 100 µM (inactive) | 97.7 µM (inactive) | > 100 µM (inactive) | 52.5 µM (inactive) | > 100 µM (inactive) | > 100 µM (inactive) | > 100 µM | > 100 µM (inactive) | > 100 µM (inactive) | 35.6 µM (inactive) | > 100 µM (inactive) | 
6 | O=c1c2cccnc2ncn1CCCN1CCCC1 | > 100 µM (inactive) | > 100 µM (inactive) |  |  | > 100 µM (inactive) | > 100 µM (inactive) | > 100 µM (inactive) | > 100 µM (inactive) | > 100 µM (inactive) | > 100 µM (inactive) | > 100 µM (inactive) | > 100 µM (inactive) | > 100 µM (inactive) | > 100 µM (inactive) |  | > 100 µM (inactive) | > 100 µM (inactive) |  |  | > 100 µM (inactive)
7 | Cc1noc(C)c1-n1nc2ccc3nonc3c2n1 | 31.7 µM (inactive) | > 100 µM (inactive) | > 100 µM (inactive) | > 100 µM (inactive) | 41 µM (inactive) | > 100 µM (inactive) | > 100 µM (inactive) | > 100 µM (inactive) | 35.9 µM (inactive) | > 100 µM (inactive) | > 100 µM (inactive) | 24.8 µM (inactive) | > 100 µM (inactive) | 37.5 µM (inactive) | > 100 µM | > 100 µM (inactive) | > 59.8 µM (inactive) | > 67.3 µM (inactive) | > 100 µM (inactive) | 
8 | CCOC(=O)C12OC(CCC1=O)C(C(=O)OC)=C2C(=O)OC (stereo unspecified) | > 10 µM (inactive) | > 10 µM (inactive) | > 10 µM (inactive) | > 10 µM (inactive) | > 10 µM (inactive) | > 10 µM (inactive) | > 10 µM (inactive) | > 10 µM (inactive) | > 10 µM (inactive) | > 10 µM (inactive) | > 10 µM (inactive) | > 10 µM (inactive) | > 10 µM (inactive) | > 10 µM (inactive) | > 10 µM | > 10 µM (inactive) | > 10 µM (inactive) | > 10 µM (inactive) | > 10 µM (inactive) | 
9 | COc1ccc(C[C@H]2NC[C@H](O)[C@H]2OC(C)=O)cc1 [ANISOMYCIN] | < 0.0184 µM (active) | 0.0478 µM (active) | 0.0359 µM (active) | 0.0223 µM (active) | 0.0361 µM (active) | 0.0194 µM (active) | < 0.0124 µM (active) | 0.0133 µM (active) | 0.0361 µM (active) | < 0.0122 µM (active) | 0.0169 µM (active) | 0.0479 µM (active) | < 0.013 µM (active) | 0.018 µM (active) | 0.0326 µM | 0.0131 µM (active) | 0.0362 µM (active) | 0.0303 µM (active) | 0.0229 µM (active) | 
10 | C=C(C(=O)OC)[C@@H]1C[C@@H](OC(C)=O)C2=C[C@H](C[C@@]3(C)O[C@@H]3C3=CC(C)=C(O3)[C@H]1OC(C)=O)OC2=O [BIPINNATIN I] | 27 µM (inactive) | 17.9 µM (inactive) | 18.2 µM (inactive) | 32.9 µM (inactive) | 36.1 µM (inactive) | 35.2 µM (inactive) | 6.84 µM (inactive) | 15.2 µM (inactive) | 18.4 µM (inactive) | 0.0429 µM (active) | 23.6 µM (inactive) | 16 µM (inactive) | 2.16 µM (inactive) | 14.7 µM (inactive) | 17.5 µM | 16.3 µM (inactive) | 18.4 µM (inactive) | 12.7 µM (inactive) | 20.4 µM (inactive) | 
11 | CC(=O)O[C@@H]1CO[C@H]2O[C@H]3[C@@H](C(C=O)=C[C@H](O)[C@@H]4C5=C(C(C)C)CC[C@]5(C)CC[C@@]34C)[C@@]2(O)C1=O [STRIATIN E] | 0.586 µM (active) | 0.303 µM (active) | 0.219 µM (active) | 0.716 µM (active) | 0.24 µM (active) | 0.241 µM (active) | 0.0869 µM (active) | 0.267 µM (active) | 0.359 µM (active) | < 0.0271 µM (active) | 0.255 µM (active) | 0.229 µM (active) | 0.0906 µM (active) | 0.112 µM (active) | 0.2 µM | 0.277 µM (active) | 0.515 µM (active) | 0.0889 µM (active) | 0.519 µM (active) | 
